Experimental data published in patent US20250163370A1, “METHOD FOR INDUCING DIFFERENTIATION OF PLURIPOTENT STEM CELLS INTO RETINAL PIGMENT […]” (OSAKA UNIVERSITY, priority 2022, published 2025).
Entries after “also recorded” stand apart in the source; their conditions may differ.

Test system: Human skin-derived iPS cells (253G1)
Type: cell-based

For hemagglutinin [HA complex], the “differentiation into other cells (RPE cell versus cell group with fibroblast-like morphology)” value was “<<cell group; also recorded: <cell group”, the “formation of cell aggregates in three-dimensional layer structure” value was “small cell; also recorded: smaller cell” and the “intercellular adhesion of the cell aggregates” value was “moderately loosened”. The “number of cells that differentiated into RPE cells” value was “increased strikingly”, the “number of fibroblast-like cell groups (undesired cells observed together with RPE cells)” value was “decreased” and the “size of the cell aggregates” value was “became smaller”.
